# Paper PMC9571093, “Synthesis and Characterization of Novel Hydrazone Derivatives of Isonicotinic Hydrazide and Their Evaluation for Antibacterial and Cytotoxic Potential” (Molecules, 2022)
# Legend:
# E. coli ATCC 10536 = assay: Tetrazolium (MTT) microplate assay of minimum inhibitory concentration; type: cell-based; settings: Escherichia coli, ATCC10536
# Experimental: (§1) All the synthesized compounds were screened for antibacterial activities using minimum inhibitory concentrations (MIC) and zone of inhibitions against Gram (+)and Gram (−) bacterial strains. ATCC strains of the test microorganism selected for antibacterial assay were Gram-positive bacteria; Staphylococcus aureus ATCC 25923, Bacillus subtilus ATCC 11774, and Gram-negative bacteria; Escherichia coli ATCC 10536. The bacterial strains’ stock cultures were kept in Nutrient agar (Oxoid, UK) at 4 °C and inocula were prepared by transferring several single colonies of microbes to a sterile Mueller Hinton broth. The bacterial cell suspension was mixed until homogeneity to give a final density of 5 × 10^5 cfu/mL
# (§2) The minimum inhibitory concentrations of test microorganisms and reference material were determined using the tetrazolium microplate assay method. The assay was performed using a 96-well clear microtiter plate. Freshly harvested bacterial cell and fungal cell suspensions were seeded at 5 × 10^5 cfu/mL in each well of the 96-well plate. Different concentrations, 500 to 10 µg/mL, of the test compounds were diluted in series with Muller–Hinton broth. A volume of 200 µL of each concentration was added in triplicate to the wells and the plates were then incubated for 18–24 h at 37 °C ± 0.5. After incubation, in each well, 50 µL of 3-(4, 5-dimethylthiazol-2-yl)-2, 5-diphenyltetrazolium bromide MTT, having a concentration of 0.2 mg/mL, was added and the plate was incubated at 37 °C for 30 min. An appropriate solvent blank (DMSO) was included as the negative control and the bacterial suspension was included as the positive control. The absorbance was measured at 570 nm with a reference wavelength of 650 nm by adding DMSO using a spectrophotometer and the percentage reduction of the dye (indicating the bacterial growth inhibition) was calculated.
# S. aureus ATCC 25923 = assay: as above; type: cell-based; settings: Staphylococcus aureus, ATCC25923
# Experimental: as §1, §2
# B. subtilis ATCC 11774 = assay: as above; type: cell-based; settings: Bacillus subtilis, ATCC11774
# Experimental: as §1, §2
# [1] = tested on: Bacillus subtilis ATCC 11774; assay: Paper disc diffusion, zone of inhibition; type: cell-based; settings: disc with 1000 µg mL−1 in DMSO, 37 °C; for zone of inhibition at 1000 µg/mL: Bacillus subtilis, ATCC11774, 24 h
# Experimental: as §1
# (§3) Preliminary screenings of synthesized compounds were conducted on agar plates using the disc diffusion method. The plates were prepared using Mueller–Hinton agar following the autoclave process (121 °C for 30 min). After cooling, the plates were inoculated with the suspension of microorganisms (S. aureus, B. subtilis and E. coli). The paper discs impregnated with the test compounds (1000 µg mL^−1 in dimethyl sulfoxide) were placed on the solidified medium and incubated at 37 °C for 24 hours before recording the zone of inhibition in millimeters.
# [2] = tested on: Escherichia coli ATCC 10536; assay: Paper disc diffusion, zone of inhibition; type: cell-based; settings: ATCC10536, disc with 1000 µg mL−1 in DMSO, 37 °C, 24 h
# Experimental: as §1, §3
# [3] = tested on: Staphylococcus aureus ATCC 25923; assay: Paper disc diffusion, zone of inhibition; type: cell-based; settings: disc with 1000 µg mL−1 in DMSO, 37 °C; for zone of inhibition at 1000 µg/mL: Staphylococcus aureus, ATCC25923, 24 h
# Experimental: as §1, §3
# [4] = Brine shrimp lethality bioassay; type: in vivo, Artemia salina; settings: Artemia salina (brine shrimp) nauplii, in vivo, other: exposure in sea water containing the compound, 24 h incubation, regression analysis, read-out: LC50 (median lethal concentration)
# Experimental: (§4) The cytotoxicities of synthesized hydrazones were recorded by employing an in vitro brine shrimp lethality bioassay technique. The eggs of Artemia salina (brine shrimp) were allowed to incubate at 30 °C for 48 h under a light and dark cycle using artificial sea water before subjecting them to the sample solutions. The hatched larvae (nauplii) were collected with using a Pasteur pipette and were transferred to freshly prepared sea water (commercial salt and double-distilled water). The stock solutions of each compound were prepared at 500 µg/mL concentration in DMSO and sea water at 1:1, and further serial dilutions of 25, 50, 100, 200 and 300 µg/mL were prepared using sea water. Using a 2mL volume from each dilution, sea water containing 10 nauplii was added to a test tube and incubated for 24 h. A solvent mixture with nauplii containing no test compound was used as the control. After due time, the number of nauplii that survived was determined using a magnifying glass. The experiment was performed in triplicate and the median lethal concentration (LC50) ± SEM was calculated using regression analysis.
# [5] = tested on: Artemia salina (brine shrimp) nauplii; assay: Brine shrimp lethality bioassay; type: in vivo; settings: 24 h, concentration not given
# Experimental: as §4
SMILES,inhibition at 100 µg/mL (E. coli ATCC 10536),inhibition at 200 µg/mL (E. coli ATCC 10536),inhibition at 300 µg/mL (E. coli ATCC 10536),inhibition at 25 µg/mL (S. aureus ATCC 25923),inhibition at 50 µg/mL (S. aureus ATCC 25923),inhibition at 100 µg/mL (S. aureus ATCC 25923),inhibition at 200 µg/mL (S. aureus ATCC 25923),inhibition at 300 µg/mL (S. aureus ATCC 25923),inhibition at 400 µg/mL (S. aureus ATCC 25923),inhibition at 25 µg/mL (B. subtilis ATCC 11774),inhibition at 50 µg/mL (B. subtilis ATCC 11774),inhibition at 100 µg/mL (B. subtilis ATCC 11774),inhibition at 200 µg/mL (B. subtilis ATCC 11774),inhibition at 300 µg/mL (B. subtilis ATCC 11774),inhibition at 400 µg/mL (B. subtilis ATCC 11774),zone of inhibition at 1000 µg/mL [1],zone of inhibition at 1000 µg/mL [2],zone of inhibition at 1000 µg/mL [3],inhibition at 25 µg/mL (E. coli ATCC 10536),inhibition at 50 µg/mL (E. coli ATCC 10536),also measured
"CC(C)(C)OC(=O)COc1ccc(/C=N/NC(=O)c2ccncc2)cc1 [NH2, Tert-butyl (E)-2-(4-((2-Isonicotinoylhydrazineylidene)methyl)phenoxy) Acetate]",10 ± 0.3%,25 ± 0.3%,55 ± 0.5%,11 ± 1%,21 ± 1.2%,42 ± 2%,50 ± 2%,63 ± 1.5%,74 ± 2%,4 ± 0.2%,12 ± 0.3%,22 ± 0.3%,44 ± 0.5%,60 ± 0.5%,81 ± 0.6%,14 mm,14 mm,15 mm,,,inhibition at 400 µg/mL (E. coli ATCC 10536; 400 µg/mL): 70 ± 0.3%
"NCC[C@H](O)C(=O)N[C@@H]1C[C@H](N)[C@@H](O[C@H]2O[C@H](CN)[C@@H](O)[C@H](O)[C@H]2O)[C@H](O)[C@H]1O[C@H]1O[C@H](CO)[C@@H](O)[C@H](N)[C@H]1O [Amikacin, reference compound]",,,,,,,,,,,,,,,,30 mm,38 mm,24 mm,,,
"CCCOc1ccc(/C=N/NC(=O)c2ccncc2)cc1 [NH6, (E)-N′-(4-Propoxybenzylidene) Isonicotinohydrazide]",28 ± 0.5%,50 ± 0.7%,73 ± 0.7%,,5.5 ± 0.5%,25 ± 0.5%,52 ± 1.6%,72 ± 1.2%,80 ± 1%,,10 ± 0.6%,23 ± 0.7%,52 ± 0.8%,70 ± 1.1%,,23 mm,22 mm,17 mm,5 ± 0.2%,14 ± 0.5%,LC50 at 24 h [4]: 162 µg/mL; minimum survival percentage [5]: 32.44 ± 2.0%
"CC(C)=CCOc1ccc(/C=N/NC(=O)c2ccncc2)cc1 [NH4, (E)-N′-(4-((3-Methylbut-2-en-1-yl)oxy)benzylidene)isonicotinohydrazide]",25 ± 0.5%,54 ± 0.4%,75 ± 0.8%,16 ± 0.5%,24 ± 1%,38 ± 1.5%,55 ± 0.9%,71 ± 2%,89 ± 1.5%,10 ± 0.7%,18 ± 0.6%,29 ± 0.8%,50 ± 1.1%,68 ± 1%,77 ± 0.8%,23 mm,21 mm,20 mm,,5 ± 0.5%,
"CC1(C)S[C@@H]2[C@H](NC(=O)[C@H](N)c3ccc(O)cc3)C(=O)N2[C@H]1C(=O)O [Amoxicillin, reference compound]",85 ± 0.6%,96 ± 1%,,,,,,,,,,,,,,,,,40 ± 0.5%,66 ± 0.5%,"IC50 (E. coli ATCC 10536; E. coli, concentration inhibiting 66 ± 0.5%): 50 µg/mL"
"CCCOc1ccc(/C=N/NC(=O)c2ccncc2)cc1OC [NH5, (E)-N′-(3-Methoxy-4-propoxybenzylidene) isonicotinohydrazide]",34 ± 0.3%,58 ± 0.6%,79 ± 0.8%,5 ± 0.4%,12 ± 0.4%,35 ± 0.7%,58 ± 1.1%,77 ± 1.5%,,,10 ± 0.5%,26 ± 0.5%,53 ± 0.6%,73 ± 0.8%,,25 mm,24 mm,22 mm,10 ± 0.6%,18 ± 0.6%,minimum survival percentage [5]: 36.10 ± 3.45%
"CO/N=C(\C(=O)N[C@@H]1C(=O)N2C(C(=O)O)=C(CSc3nc(=O)c(=O)[nH]n3C)CS[C@H]12)c1csc(N)n1 [Ceftriaxone, reference compound]",,,,30 ± 0.8%,55 ± 0.3%,80 ± 1.2%,96 ± 1%,,,40 ± 0.5%,55 ± 0.7%,79 ± 1.2%,92 ± 1.2%,,,,,,,,"minimum inhibitory concentration (S. aureus ATCC 25923; S. aureus, concentration inhibiting 55 ± 0.3%, read-out: IC50): 50 µg/mL; IC50 (B. subtilis ATCC 11774; B. subtilis, concentration inhibiting 55 ± 0.7%): 50 µg/mL"
"COc1cc(/C=N/NC(=O)c2ccncc2)ccc1OCC=C(C)C [NH3, (E)-N′-(3-Methoxy-4-((3-methylbut-2-en-1-yl)oxy)benzylidene)isonicotinohydrazide]",50 ± 0.5%,65 ± 0.2%,85 ± 1.2%,24 ± 0.7%,35 ± 1.2%,44 ± 2%,60 ± 1.5%,78 ± 1%,89 ± 1.5%,12 ± 0.4%,20 ± 0.7%,28 ± 0.8%,53 ± 0.7%,74 ± 0.9%,84 ± 0.9%,23 mm,33 mm,24 mm,,36 ± 0.5%,Zone of Inhibition ([1]; 24 h): 22 mm; LC50 at 24 h [4]: 240 µg/mL
"COc1cc(/C=N/NC(=O)c2ccncc2)ccc1OCC(=O)OC(C)(C)C [NH1, Tert-butyl (E)-2-(4-((2-Isonicotinoylhydrazineylidene)methyl)-2-methoxyphenoxy) Acetate]",40 ± 0.4%,60 ± 0.5%,79 ± 1%,,10 ± 0.6%,25 ± 0.7%,55 ± 1%,63 ± 1%,69 ± 2%,,5 ± 0.3%,26 ± 0.3%,44 ± 0.4%,60 ± 0.5%,75 ± 0.5%,14 mm,25 mm,24 mm,9 ± 0.5%,18 ± 0.5%,inhibition at 500 µg/mL (S. aureus ATCC 25923; 500 µg/mL): 80 ± 1.5%; Zone of Inhibition ([3]; 24 h): 20 mm
